{"source": "patent US8664392B2", "about": "“Pyrazine derivatives for bioconjugation” (MediBeacon, LLC, priority 2004, dated 2014)", "origin": "cited, not measured here", "conditions": "absorb and emit in the blue to orange regions", "data": [{"compound": "Nc1nc(C(=O)O)c(N)nc1C(=O)O", "note": "[3,6-diamino-2,5-pyrazine-dicarboxylic acid]", "values": [{"measurement": "Stokes shift", "value": "~100", "unit": "nm"}]}]}
